Legend:
[1] = target: T1, hRIPK1 (aa 1-375) fusion protein (Homo sapiens, UniProt Q13546); assay: Receptor-Interacting Protein Kinase 1 inhibition, ADP Glo assay (conversion of ATP to ADP due to autophosphorylation); type: biochemical; conditions: ATP 50 μM, 30 min preincubation, 240 min incubation, room temperature, DMSO 1%
T1 construct: hRIPK1 (aa 1-375) fusion protein
T1 sequence (Q13546 1-375): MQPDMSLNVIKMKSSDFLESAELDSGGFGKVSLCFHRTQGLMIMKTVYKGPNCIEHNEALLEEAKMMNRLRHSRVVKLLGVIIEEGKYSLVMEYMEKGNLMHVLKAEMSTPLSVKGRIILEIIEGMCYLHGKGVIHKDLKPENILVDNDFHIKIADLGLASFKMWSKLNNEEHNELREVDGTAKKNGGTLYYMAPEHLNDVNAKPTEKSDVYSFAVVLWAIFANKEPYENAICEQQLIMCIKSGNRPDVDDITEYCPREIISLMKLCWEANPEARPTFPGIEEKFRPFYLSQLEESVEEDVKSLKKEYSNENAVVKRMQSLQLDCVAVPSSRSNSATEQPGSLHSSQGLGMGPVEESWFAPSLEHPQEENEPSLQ
Outline: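 The readout was ADP-Glo luminescence after a 240 min rt autophosphorylation reaction with 50 μM ATP, following 30 min preincubation of 3.6 μg/ml hRIPK1 (aa 1-375) fusion with compound at 33300-1.69 nM final in 1% DMSO. Values came from Levenberg-Marquardt nonlinear fits.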

U937 cells = assay: Cellular assay in U937 cells to measure activity of RIPK1-inhibitors on cell death (necroptosis); type: cell-based; conditions: Homo sapiens, U-937, TNFα/zVAD.fmk induced cell death (necroptosis), overnight (18 to 24 hrs), 37° C., MTS readout

Row | Compound | IC50 [1] | IC50 (U937 cells)
1 | O=C([C@H]1CC[C@@H](COc2cc(Cl)ncn2)CC1)N1OCC[C@H]1c1cc(F)cc(F)c1 [Compound 56, cis-(4-(((6-chloropyrimidin-4-yl)oxy)methyl)cyclohexyl)((S)-3-(3,5-difluorophenyl)isoxazolidin-2-yl)methanone] | 47 nM | 125 nM
2 | CC1(C)OC(=O)N(c2ccc(Cl)c(OC[C@H]3CC[C@H](C(=O)N4OCC[C@H]4c4cc(F)cc(F)c4)CC3)c2)C1=O [Compound 57, trans-3-(4-chloro-3-((4-((S)-3-(3,5-difluorophenyl)isoxazolidine-2-carbonyl)cyclohexyl)methoxy)phenyl)-5,5-dimethyloxazolidine-2,4-dione] | 38 nM | 37 nM
3 | O=C1CCC(=O)N1c1ccc(Cl)c(OC[C@H]2CC[C@H](C(=O)N3OCC[C@H]3c3cc(F)cc(F)c3)CC2)c1 [Compound 58, trans-1-(4-chloro-3-((4-((S)-3-(3,5-difluorophenyl)isoxazolidine-2-carbonyl)cyclohexyl)methoxy)phenyl)pyrrolidine-2,5-dione] | 44 nM | 104 nM
4 | CC1(C)OC(=O)N(c2ccc(F)c(OC[C@H]3CC[C@H](C(=O)N4OCC[C@H]4c4cc(F)cc(F)c4)CC3)c2)C1=O [Compound 59, trans-3-(3-((4-((S)-3-(3,5-difluorophenyl)isoxazolidine-2-carbonyl)cyclohexyl)methoxy)-4-fluorophenyl)-5,5-dimethyloxazolidine-2,4-dione] | 29 nM | 30 nM
5 | N#Cc1cc(F)cc(O[C@H]2C[C@@H](C(=O)N3OCC[C@H]3c3cc(F)cc(F)c3)C2)c1 [Compound 61, cis-3-(3-((S)-3-(3,5-difluorophenyl)isoxazolidine-2-carbonyl)cyclobutoxy)-5-fluorobenzonitrile] | 54 nM | 126 nM
6 | CN1CC(=O)N(c2ccc(Cl)c(OC[C@H]3CC[C@H](C(=O)N4OCC[C@H]4c4cc(F)cc(F)c4)CC3)c2)C1=O [Compound 63, trans-3-(4-chloro-3-((4-((S)-3-(3,5-difluorophenyl)isoxazolidine-2-carbonyl)cyclohexyl)methoxy)phenyl)-1-methylimidazolidine-2,4-dione] | 44 nM | 45 nM
7 | Cc1nnc(C)n1-c1ccc(F)c(OC[C@H]2CC[C@H](C(=O)N3OCC[C@H]3c3cc(F)cc(F)c3)CC2)c1 [Compound 64, trans-((S)-3-(3,5-difluorophenyl)isoxazolidin-2-yl)(4-((5-(3,5-dimethyl-4H-1,2,4-triazol-4-yl)-2-fluorophenoxy)methyl)cyclohexyl)methanone] | 56 nM | 529 nM
8 | N#Cc1cc(O[C@H]2C[C@@H](C(=O)N3OCC[C@H]3c3cc(F)cc(F)c3)C2)ccc1F [Compound 65, cis-5-(3-((S)-3-(3,5-difluorophenyl)isoxazolidine-2-carbonyl)cyclobutoxy)-2-fluorobenzonitrile] | 18 nM | 49 nM
9 | NS(=O)(=O)c1cccc(OC[C@H]2CC[C@H](C(=O)N3OCC[C@H]3c3cc(F)cc(F)c3)CC2)c1 [Compound 66, trans-3-((4-((S)-3-(3,5-difluorophenyl)isoxazolidine-2-carbonyl)cyclohexyl)methoxy)benzenesulfonamide] | 35 nM | 8 nM
10 | Cn1ccn(-c2ccc(OC[C@H]3CC[C@H](C(=O)N4OCC[C@H]4c4cc(F)cc(F)c4)CC3)c(F)c2)c1=O [Compound 68, trans-1-(4-((4-((S)-3-(3,5-difluorophenyl)isoxazolidine-2-carbonyl)cyclohexyl)methoxy)-3-fluorophenyl)-3-methyl-1,3-dihydro-2H-imidazol-2-one] | 19 nM | 8 nM
11 | O=C([C@H]1C[C@@H](n2cnc3cc(F)ccc32)C1)N1OCC[C@H]1c1cc(F)cc(F)c1 [Compound 69, cis-((S)-3-(3,5-difluorophenyl)isoxazolidin-2-yl)(3-(5-fluoro-1H-benzo[d]imidazol-1-yl)cyclobutyl)methanone] | 26 nM | 35 nM
12 | N#Cc1cc(F)cc([C@@H]2CCON2C(=O)[C@H]2C[C@@H](n3cnc4cc(F)ccc43)C2)c1 [Compound 70, cis-3-fluoro-5-((S)-2-(3-(5-fluoro-1H-benzo[d]imidazol-1-yl)cyclobutane-1-carbonyl)isoxazolidin-3-yl)benzonitrile] | 39 nM | 349 nM
13 | N#Cc1cncc([C@@H]2CCON2C(=O)[C@H]2CC[C@H](COc3cccc(C(N)=O)c3)CC2)c1 [Compound 73, trans-3-((4-((S)-3-(5-cyanopyridin-3-yl)isoxazolidine-2-carbonyl)cyclohexyl)methoxy)benzamide] | 29 nM | 26 nM
14 | Cc1cc(C)n(-c2ccc(OC[C@H]3CC[C@H](C(=O)N4OCC[C@H]4c4cc(F)cc(C#N)c4)CC3)c(F)c2)n1 [Compound 76, trans-3-((S)-2-(4-((4-(3,5-dimethyl-1H-pyrazol-1-yl)-2-fluorophenoxy)methyl)cyclohexane-1-carbonyl)isoxazolidin-3-yl)-5-fluorobenzonitrile] | 47 nM | 47 nM
15 | N#Cc1cc(F)cc([C@@H]2CCON2C(=O)[C@H]2CC[C@H](COc3cccc(S(N)(=O)=O)c3)CC2)c1 [Compound 77, trans-3-((4-((S)-3-(3-cyano-5-fluorophenyl)isoxazolidine-2-carbonyl)cyclohexyl)methoxy)benzenesulfonamide] | 53 nM | 48 nM
16 | Cn1ccn(-c2ccc(OC[C@H]3CC[C@H](C(=O)N4OCC[C@H]4c4cc(F)cc(C#N)c4)CC3)c(F)c2)c1=O [Compound 78, trans-3-fluoro-5-((S)-2-(4-((2-fluoro-4-(3-methyl-2-oxo-2,3-dihydro-1H-imidazol-1-yl)phenoxy)methyl)cyclohexane-1-carbonyl)isoxazolidin-3-yl)benzonitrile] | 43 nM | 9 nM
17 | CN1CC(=O)N(c2ccc(Cl)c(OC[C@H]3CC[C@H](C(=O)N4OCC[C@H]4c4cc(F)cc(C#N)c4)CC3)c2)C1=O [Compound 80, trans-3-((S)-2-(4-((2-chloro-5-(3-methyl-2,5-dioxoimidazolidin-1-yl)phenoxy)methyl)cyclohexane-1-carbonyl)isoxazolidin-3-yl)-5-fluorobenzonitrile] | 164 nM | 123 nM

More lines, in order of falling IC50 [1], values ahead:

Row | IC50 [1] | Compound | IC50 (U937 cells)
18 | 76 nM | O=C1CCCN1c1ccc(Cl)c(OC[C@H]2CC[C@H](C(=O)N3OCC[C@H]3c3cc(F)cc(F)c3)CC2)c1 [Compound 60, trans-1-(4-chloro-3-((4-((S)-3-(3,5-difluorophenyl)isoxazolidine-2-carbonyl)cyclohexyl)methoxy)phenyl)pyrrolidin-2-one] | 112 nM
19 | 46 nM | Cc1nnc(C)n1-c1ccc(OC[C@H]2CC[C@H](C(=O)N3OCC[C@H]3c3cc(F)cc(F)c3)CC2)c(F)c1 [Compound 67, trans-((S)-3-(3,5-difluorophenyl)isoxazolidin-2-yl)(4-((4-(3,5-dimethyl-4H-1,2,4-triazol-4-yl)-2-fluorophenoxy)methyl)cyclohexyl)methanone] | 128 nM
20 | 43 nM | N#Cc1cncc([C@@H]2CCON2C(=O)[C@H]2CC[C@H](COc3ccc(Cl)c(C(N)=O)c3)CC2)c1 [Compound 75, trans-2-chloro-5-((4-((S)-3-(5-cyanopyridin-3-yl)isoxazolidine-2-carbonyl)cyclohexyl)methoxy)benzamide] | 224 nM
21 | 28 nM | Cc1cc(C)n(-c2ccc(OC[C@H]3CC[C@H](C(=O)N4OCC[C@H]4c4cc(F)cc(F)c4)CC3)c(F)c2)n1 [Compound 62, trans-((S)-3-(3,5-difluorophenyl)isoxazolidin-2-yl)(4-((4-(3,5-dimethyl-1H-pyrazol-1-yl)-2-fluorophenoxy)methyl)cyclohexyl)methanone] | 34 nM
22 | 24 nM | N#Cc1cncc([C@@H]2CCON2C(=O)[C@H]2CC[C@H](COc3ccc(F)c(C(N)=O)c3)CC2)c1 [Compound 74, trans-5-((4-((S)-3-(5-cyanopyridin-3-yl)isoxazolidine-2-carbonyl)cyclohexyl)methoxy)-2-fluorobenzamide] | 82 nM
23 | 20 nM | CC1(C)OC(=O)N(c2ccc(F)c(OC[C@H]3CC[C@H](C(=O)N4OCC[C@H]4c4cc(F)cc(C#N)c4)CC3)c2)C1=O [Compound 79, trans-3-((S)-2-(4-((5-(5,5-dimethyl-2,4-dioxooxazolidin-3-yl)-2-fluorophenoxy)methyl)cyclohexane-1-carbonyl)isoxazolidin-3-yl)-5-fluorobenzonitrile] | 9 nM
24 | 15 nM | N#Cc1cncc([C@@H]2CCON2C(=O)[C@H]2CC[C@H](COc3ccc(F)c(C#N)c3)CC2)c1 [Compound 72, trans-5-((S)-2-(4-((3-cyano-4-fluorophenoxy)methyl)cyclohexane-1-carbonyl)isoxazolidin-3-yl)nicotinonitrile] | 13 nM
25 | 14 nM | N#Cc1cccc(OC[C@H]2CC[C@H](C(=O)N3OCC[C@H]3c3cncc(C#N)c3)CC2)c1 [Compound 71, trans-5-((S)-2-(4-((3-cyanophenoxy)methyl)cyclohexane-1-carbonyl)isoxazolidin-3-yl)nicotinonitrile] | 6 nM

Reference: patent US20260317312A1, “ISOXAZOLIDINES AS RIPK1 INHIBITORS AND USE THEREOF” (GENZYME CORPORATION, priority 2023, published 2026)
